Values after ≈ are worked out from the molar mass of the structure shown.
Key:
Cladosporium cucumerinum = experiment: Antifungal activity against Cladosporium cucumerinum assessed as zone of inhibition; assay type: functional
Paradendryphiella salina = experiment: Antifungal activity against Dendry-phiella salina; assay type: functional, organism-based
Lindra thalassiae = experiment: Antifungal activity against Lindra thalassiae; assay type: functional, organism-based; conditions: Lindriella thalassiae
Candida albicans [1] = experiment: Antifungal activity against amphotericin-B-resistant Candida albicans; assay type: functional, organism-based
Candida albicans [2] = experiment: Antifungal activity against wild type Candida albicans; assay type: functional, organism-based
Candida albicans [3] = experiment: Antifungal activity against Candida albicans ATCC76615 by atomatic microplate reader analysis; assay type: functional
Kluyveromyces marxianus [4] = experiment: Antifungal activity against clinical strain Candida pseudotropicalis by atomatic microplate reader analysis; assay type: functional
Nannizzia gypsea [5] = experiment: Antifungal activity against Microsporum gypseum ATCC31388 by atomatic microplate reader analysis; assay type: functional
Candida parapsilosis = experiment: Antifungal activity against clinical strain Candida parapsilosis by atomatic microplate reader analysis; assay type: functional; conditions: Lodderomyces parapsilosis
Trichophyton rubrum = experiment: Antifungal activity against Trichophyton rubrum; assay type: functional
Nannizzia gypsea [6] = experiment: Antifungal activity against Microsporum gypseum; assay type: functional
Kluyveromyces marxianus [7] = experiment: Antifungal activity against Candida pseudotropicalis; assay type: functional
Candida albicans [8] = experiment: Antimicrobial activity against Candida albicans assessed as inhibition of fungal growth; assay type: functional

CO[C@@H]1[C@@H](O)[C@H](O[C@@H]2[C@@H](O)[C@H](O[C@H]3[C@H](O)[C@@H](O)[C@H](O[C@H]4[C@H](O[C@H]5CC[C@]6(C)C7C[C@H](O)[C@]89C(=O)O[C@@](C)(CCCC(C)C)[C@@]8(O)CC[C@@]9(C)C7=CC[C@H]6C5(C)C)OC[C@@H](OS(=O)(=O)[O-])[C@@H]4O)O[C@@H]3C)O[C@H](COS(=O)(=O)[O-])[C@H]2O)O[C@H](CO)[C@H]1O.[Na+].[Na+] (stereo partly drawn)
inhibition zone (IZ) (Cladosporium cucumerinum): 8 mm

CO[C@H]1C[C@H](CC[C@H](C)[C@H](O)[C@H](C)[C@H]2OC(=O)/C=C/C(C)=C/[C@@H](O)[C@H](OC)C[C@@H]3C=CC[C@@H](C[C@@H](OC)[C@@]4(CO4)[C@@H](OC)C[C@@H](OC)[C@@H]2C)O3)O[C@@H](C)C1
IC50 (Paradendryphiella salina): 0.034 µg/mL (≈ 0.0443 µM) | IC50 (Lindra thalassiae): 0.135 µg/mL (≈ 0.176 µM) | IC50 (Candida albicans [1]): 0.5 µg/mL (≈ 0.652 µM) | IC50 (Candida albicans [2]): 1.3 µg/mL (≈ 1.69 µM)

CO[C@@H]1[C@@H](O)[C@H](O[C@@H]2[C@H](O)[C@H](O[C@H]3[C@H](O)[C@@H](O)[C@H](O[C@H]4[C@H](OC5CC[C@]6(C)C7=C(CC[C@H]6C5(C)C)[C@]5(C)CC[C@H]6[C@]5(CC7)C(=O)O[C@@]6(C)C[C@H](O)CC(C)C)OC[C@@H](O[C@@H]5O[C@H](CO)[C@@H](O)[C@H](O)[C@H]5O)[C@@H]4O)O[C@@H]3CO)OC[C@H]2O)O[C@H](CO)[C@H]1O (stereo partly drawn)
MIC (Candida albicans [3]): 3.4 µg/mL (≈ 2.75 µM) | MIC (Kluyveromyces marxianus [4]): 3.4 µg/mL (≈ 2.75 µM) | MIC (Nannizzia gypsea [5]): 3.4 µg/mL (≈ 2.75 µM) | MIC (Candida parapsilosis): 3.4 µg/mL (≈ 2.75 µM)

C=C(C)CCC[C@]1(C)OC(=O)[C@]23[C@@H](O)C=C4[C@@H](CC[C@H]5C(C)(C)[C@@H](O[C@@H]6OC[C@@H](OS(=O)(=O)[O-])[C@H](O)[C@H]6O[C@@H]6O[C@H](C)[C@@H](O[C@@H]7O[C@H](CO)[C@@H](O)[C@H](O[C@@H]8O[C@H](CO)[C@@H](O)[C@H](OC)[C@H]8O)[C@H]7O)[C@H](O)[C@H]6O)CC[C@]45C)[C@]2(C)CC[C@@]31O.[Na+]
MIC (Trichophyton rubrum): 1 µg/mL | MIC (Nannizzia gypsea [6]): 1 µg/mL | MIC (Kluyveromyces marxianus [7]): 1 µg/mL | MIC (Candida albicans [8]): 1 µg/mL

Source: ChEMBL document CHEMBL5260795, “Antifungal potential of marine natural products” (Eur J Med Chem, 2017)
